Test results taken from patent US20150374779A1, “PHARMACOLOGIC TREATMENTS OF MENIÉRE'S DISEASE” (priority 2014, published 2015).
Where no end group is shown, it is not given here. [ ]: non-standard residue; d: D form.

Tests used:
KOS strain of HSV-1 [1] = test: single cycle herpes simplex virus infection assay (virus yield), ATRA-differentiated SH-SY5Y human neuroblastoma cells; format: cell-based; details: for virus yield, % of control: DMSO = 100; for activity at 40 µM: Human alphaherpesvirus 1, Neuroblastoma cell
Method: (§1) A single cycle herpes simplex virus infection assay was performed to determine the effect of JNK inhibitors on virus yield.
(§2) To prepare a 1 mM stock solution, 5.15 mg of D-JNKI-1 acetate was suspended in 1 ml of water, vortexed for 2 minutes, and sterilized by passage through a PES filter; 50 μL aliquots were prepared and stored at −20° C.
(§3) Human neuroblastoma cells (SH-SY5Y) were maintained in DMEM plus 10% fetal calf serum, 1 mM HEPES (Gibco) and 2 μg/ml gentamicin (Gibco). For differentiation, monolayers of cells were rinsed in PBS and then maintained in Neurobasal medium (Gibco) plus 2% B27 supplement and […] all-trans retinoic acid (ATRA). Primary fetal rat cortex cells were maintained in Neurobasal medium plus 2% B27, 2 mM glutamine and […] gentamicin.
(§4) Monolayers of SH-SY5Y human neuroblastoma cells differentiated by treatment with ATRA, or fetal rat cortex neurons were pre-treated with 10-20 μM D-JNKI-1, 40 μM SP600125 (Calbiochem), or DMSO (D2650, Sigma-Aldrich) vehicle control for 30 minutes prior to infection. Monolayers were infected with the KOS strain of HSV-1 at a multiplicity of infection (MOI) of 5 for 60 minutes under conditions of pre-treatment. Following the inoculation period, monolayers were incubated under pre-treatment conditions and harvested at 20 hours postinfection.
(§5) Cells and media were collected, and subjected to three rounds of freezing and thawing. Serial ten-fold dilutions were prepared and aliquots seeded in triplicate onto monolayers of Vero cells. Following a 60-minutes infection period, the inoculum was removed and replaced with medium containing 0.3% methyl cellulose. After 3 days, the overlay was removed and the cell monolayer stained with 0.8% crystal violet in 50% ethanol and plaques counted to determine virus yield. Results were presented as % of yield relative to control conditions (DMSO vehicle treatment).

KOS strain of HSV-1 [2] = test: single cycle herpes simplex virus infection assay (virus yield), fetal rat cortex neurons; format: cell-based; details: for Pfu/culture: MOI 5, harvest 20 h postinfection, DMSO 1.33 × 10^6
Method: as §1, §2, §3, §4, §5

wild type HSV-1 (KOS) = test: Western blot assay of accumulation of HSV-1 viral proteins (IE, E, L classes) in SH-SY5Y cells and rat fetal cortex neurons; format: cell-based; details: 10 μM; both SH-SY5Y cells and fetal cortex neurons; 8 h post infection
Method: Cell monolayers were pretreated either with DMSO (DM, vehicle control), or the JNK inhibitors D-JNKI-1 (AM, 10 μM) or SP600125 (SP, 40 μM), then infected in the presence of drug for 60 minutes and finally in the presence of drug until the time of harvest, 8 hours post infection. Western blot for tubulin served as a loading control.
The ability of JNK inhibitors to affect accumulation of viral proteins representative of the immediate-early (IE), early (E) or late (L) kinetic classes was evaluated by a Western blot assay.
Unless indicated otherwise, the same materials and methods were applied as for the experiment described under Example 1 and as laid out by Hargett et al., 2005.
Replicate monolayers of rat fetal cortex neurons or ATRA-differentiated SH-SY5Y cells were pre-treated with DMSO, D-JNKI-1 (10 μM) or […] (40 μM) for 30 minutes, and then infected with wild type HSV-1 (KOS) or ICP27 null mutant d27 at a multiplicity of infection (MOI) of 5, or mock-infected under pre-treatment conditions for 60 minutes. The inoculum was removed and incubation continued under the pretreatment conditions until the time of harvest. Whole cell lysates were prepared at 8 h post infection. Aliquots of lysates were separated on 12% gels by standard polyacrylamide gel electrophoresis (SDS-PAGE) procedures. […]

reovirus T3D = details: cited from earlier work
[3] = test system: models of cochlear insult; details: acute noise trauma, acute labyrinthitis, aminoglycoside ototoxicity, bacterial infection, cochlear ischemia, cochlear implantation trauma; cited from earlier work
ASNHL-related tinnitus = test: double-blind, randomized, placebo-controlled phase II study of AM-111 in ASNHL and associated tinnitus; format: in vivo, human; details: for Complete ASNHL-Related Tinnitus Remission in the Treated Ear, Frequency (%): mITT; for Number of Subjects with Tinnitus/Number of Subjects with Observation (%): Day 90, placebo 28/50 (56.0)
Method: A double-blind, randomized, placebo-controlled phase II study was conducted to evaluate the efficacy and safety of AM-111 in treating ASNHL and associated tinnitus. Eligible participants were aged 18 to 60 years and suffered from ASNHL (unilateral idiopathic sudden sensorineural hearing loss (ISSNHL), uni- or bilateral acute acoustic trauma (AAT)) with hearing loss of at least 30 dB and onset not more than 48 hours previously. The hearing loss was determined against a reference value: mean hearing threshold at the 3 most affected contiguous test frequencies (pure tone average, PTA) less corresponding mean hearing threshold of the contralateral ear (Plontke et al., 2007). In case of previously asymmetric hearing or bilateral ASNHL, thresholds from a previous audiogram or ISO-7029; 2000 norm values served as reference. The PTA frequencies determined at baseline remained fixed for all evaluations.
Exclusion criteria included history of Meniére's disease, autoimmune or radiation induced hearing […] loss, endolymphatic hydrops or fluctuating hearing loss, suspected perilymph fistula, membrane rupture or retrocochlear lesion, barotrauma, air-bone gap >20 dB in 3 contiguous frequencies, previous ASNHL incident within the past 6 weeks, and acute or chronic otitis media or otitis externa. Women who were breast feeding, pregnant or who planned a pregnancy during the study, or women of childbearing potential who declared being unwilling or unable to practice an effective method of […] contraception were excluded. Written informed consent was obtained from each patient prior to the performance of any study-specific procedures.
At baseline (Day 0), study participants were randomized to receive AM-111 (0.4 or 2.0 mg/mL) or placebo at a 2:1 ratio. The study consisted of a baseline assessment and 4 follow-up visits on Days 3, 7, 30, and 90. Baseline assessments included a general physical examination, vital signs, and a urine pregnancy test for women of childbearing age. At each study visit pure tone hearing thresholds, speech discrimination at 60 and 80 dB, and subjective tinnitus loudness were determined. Those patients reporting tinnitus were asked to rate its loudness “right now” on a numerical scale ranging from 0 (no tinnitus) to 10 (extremely loud).
Approximately 0.25 mL of the study drug was administered on Day 0 by intratympanic (i.t.) injection under local anesthesia through a small myringotomy with the patient's head placed in a position tilted 45° towards the unaffected ear. Patients remained in their reclined or supine position for approximately 30 minutes to allow for diffusion of the active substance into the cochlea. In case of bilateral AAT, only the worst affected ear was treated. Subjects whose PTA recovered <10 dB from baseline to Day 7 were given the option to receive oral prednisolone 50 mg (Ratiopharm, Ulm, Germany) b.i.d. for 5 days.
The sample size was determined based on an expected effect size of 0.6, a two-sided type I error rate of 5% and a statistical power of 80%.
Efficacy analyses were primarily performed on a modified “Intention to treat” (mITT) analysis set (treated patients with PTA measured on Day 3±1 or Day 7+4 days at most) and secondarily on the “Per Protocol” (PP) analysis set. The “Safety Population” analysis set included all patients who received an injection of the study medication. Random imputation was performed for missing PTA values at Days 7 and 30, and missing speech discrimination score (SDS) values at Day 7 based on the preceding value and the mean change observed in the respective treatment group (mITT set).
For continuous efficacy endpoints, analysis of covariance (ANCOVA) models were used including treatment group and initial frequency range as class effects, and baseline values of the respective endpoint as covariate. For the complete recovery rate, a logistic regression model was applied including treatment, initial frequency range, and baseline hearing loss as predictor variables. […]

DQSRPVQPFLNLTTPRKPRPPRRRQRRKKRG (SEQ ID NO: 2) (not fully specified (some residues); also: D-amino acids (positions not given here)) [D-JNKI-1]
virus yield (in words) (KOS strain of HSV-1 [1]): substantially reduced
virus yield, % of control (KOS strain of HSV-1 [1]; First experiment, 10 μM): 37%
Pfu/culture (KOS strain of HSV-1 [1]; First experiment, 10 μM, MOI 5, harvest 20 h postinfection, DMSO 3.5 × 10^5): 1.27 × 10^5 Pfu/culture
Pfu/culture (KOS strain of HSV-1 [1]; Second experiment, 10 μM, DMSO 8.5 × 10^5): 2.23 × 10^5 Pfu/culture
virus yield, % of control (KOS strain of HSV-1 [1]; Second experiment, 10 μM): 26%
Pfu/culture (KOS strain of HSV-1 [1]; Second experiment, 20 μM, DMSO 8.5 × 10^5): 2.06 × 10^5 Pfu/culture
virus yield, % of control (KOS strain of HSV-1 [1]; Second experiment, 20 μM): 24%
virus yield, % of control (KOS strain of HSV-1 [2]; 10 μM, fetal rat neurons, DMSO = 100): 12%
Pfu/culture (KOS strain of HSV-1 [2]; 10 μM, fetal rat neurons): 1.67 × 10^5 Pfu/culture
virus yield (in words) (KOS strain of HSV-1 [2]; rat cortex neurons): substantially reduced
L (gC and Us11) protein accumulation (wild type HSV-1 (KOS)): severe reduction
accumulation of IE (ICP27) and E (ICP8) proteins (wild type HSV-1 (KOS)): moderate reductions
survival of intracerebrally infected mice (reovirus T3D; otherwise lethal challenge with T3D (100×50% lethal dose)): significantly prolonged survival
CNS injury (reovirus T3D; reovirus-infected mice): reduced CNS injury
c-Jun activation (reovirus T3D; reovirus-infected mice): reduced c-Jun activation
neuronal apoptosis (reovirus T3D; reovirus-infected mice): reduced neuronal apoptosis
viral titer or viral antigen distribution (reovirus T3D; reovirus-infected mice): without altering

Oc1c2ccccc2c2c3c(cccc13)N=N2 [SP600125, reference compound]
Pfu/culture (KOS strain of HSV-1 [1]; First experiment, 40 μM, MOI 5, harvest 20 h postinfection, DMSO 3.5 × 10^5): 2.57 × 10^5 Pfu/culture
activity at 40 µM (KOS strain of HSV-1 [1]; read-out: virus yield, % of control, First experiment, 40 μM, DMSO = 100): 72%
activity at 40 µM (KOS strain of HSV-1 [1]; read-out: virus yield, % of control, Second experiment, 40 μM, DMSO = 100): 20%
Pfu/culture (KOS strain of HSV-1 [1]; Second experiment, 40 μM, DMSO 8.5 × 10^5): 1.76 × 10^5 Pfu/culture
Pfu/culture (KOS strain of HSV-1 [2]; 40 μM, fetal rat neurons): 8.0 × 10^5 Pfu/culture
activity at 40 µM (KOS strain of HSV-1 [2]; Human alphaherpesvirus 1, Neuron, 40 μM, fetal rat neurons, DMSO = 100, read-out: virus yield, % of control): 60%

DQSRPVQPFLNLTTPRKPRPPRRRQRRKKRG (SEQ ID NO: 2) ([dD][dQ][dS][dR][dP][dV][dQ][dP][dF][dL][dN][dL][dT][dT][dP][dR][dK][dP][dR][dP][dP][dR][dR][dR][dQ][dR][dR][dK][dK][dR]G) [AM-111, 31-amino acid cell-permeable peptide, formulated in a biocompatible hyaluronic acid gel]
otoprotection [3]: otoprotective
Complete ASNHL-Related Tinnitus Remission in the Treated Ear, Frequency (%) (ASNHL-related tinnitus; All Subjects, 0.4 mg/mL, N = 50, Time point: Overall (90 days), placebo 28 (54.9%), p 0.151): 35 (70.0%)
Complete ASNHL-Related Tinnitus Remission in the Treated Ear, Frequency (%) (ASNHL-related tinnitus; All Subjects, 2.0 mg/mL, N = 56, Overall, placebo 28 (54.9%), p 1.000): 31 (55.4%)
Number of Subjects with Tinnitus/Number of Subjects with Observation (%) (ASNHL-related tinnitus; 0.4 mg/mL i.t.): 38.0%
Number of Subjects with Tinnitus/Number of Subjects with Observation (%) (ASNHL-related tinnitus; 2.0 mg/mL i.t.): 51.9%
Complete ASNHL-Related Tinnitus Remission in the Treated Ear, Frequency (%) (ASNHL-related tinnitus; Mild to Moderate Subgroup, 0.4 mg/mL, N = 25, Overall, placebo 22 (78.6%), p 0.732): 21 (84.0%)
Complete ASNHL-Related Tinnitus Remission in the Treated Ear, Frequency (%) (ASNHL-related tinnitus; Mild to Moderate Subgroup, 2.0 mg/mL, N = 27, Overall, placebo 22 (78.6%), p 0.245): 17 (63.0%)
complete tinnitus remission, difference between AM-111 treatment groups and placebo (ASNHL-related tinnitus; subgroup mild to moderate hearing loss, 0.4 and 2.0 mg/mL): no statistically significant differences
